The text below walks through data of ChEMBL document CHEMBL1201862, “PubChem BioAssay data set” (2004).

Test [1] addresses Low molecular weight phosphotyrosine protein phosphatase (Homo sapiens, UniProt P24666). In kind it is functional. To be noted: read-out: IC50_Mean.
Test [2] concerns the target T1, Corticotropin-releasing factor receptor 2/Corticotropin-releasing factor-binding protein (Homo sapiens, UniProt P24387+Q13324).
T1 sequence (Q13324 whole entry): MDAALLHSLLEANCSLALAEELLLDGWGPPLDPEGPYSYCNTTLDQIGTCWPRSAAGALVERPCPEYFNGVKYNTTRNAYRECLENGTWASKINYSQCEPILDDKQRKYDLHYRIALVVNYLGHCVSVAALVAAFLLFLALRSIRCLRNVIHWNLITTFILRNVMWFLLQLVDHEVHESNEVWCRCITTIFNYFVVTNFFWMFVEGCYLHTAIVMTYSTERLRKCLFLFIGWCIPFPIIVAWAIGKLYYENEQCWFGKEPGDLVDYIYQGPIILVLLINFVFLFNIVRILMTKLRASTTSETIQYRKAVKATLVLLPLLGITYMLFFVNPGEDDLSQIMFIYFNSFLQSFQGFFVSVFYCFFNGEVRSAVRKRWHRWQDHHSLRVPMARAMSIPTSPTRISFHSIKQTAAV
T1 sequence (P24387 whole entry): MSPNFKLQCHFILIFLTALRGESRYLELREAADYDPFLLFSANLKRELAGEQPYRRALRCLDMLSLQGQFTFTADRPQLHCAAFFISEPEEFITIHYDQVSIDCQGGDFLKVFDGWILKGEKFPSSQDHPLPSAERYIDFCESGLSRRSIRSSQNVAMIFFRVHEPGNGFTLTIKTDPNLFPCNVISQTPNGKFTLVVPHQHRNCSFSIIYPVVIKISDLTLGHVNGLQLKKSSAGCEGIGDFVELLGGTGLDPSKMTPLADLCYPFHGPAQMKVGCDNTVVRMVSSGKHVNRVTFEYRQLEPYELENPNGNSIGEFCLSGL
Nature of the test: activators of CRF receptor 2 with binding protein – uHTS hits, confirmation (AID 602473). It counts as functional. Conditions: read-out: EC50_Mean.

Test [3] in a line: blockers of CRF-binding protein–CRF-R2 complex – cell-based, uHTS hits, 384-well, dose response (AID 651639). In kind it is functional, Homo sapiens. Conditions: read-out: IC50_Mean.
Test [4] concerns the target T2, CAAX prenyl protease 2 (Homo sapiens, UniProt Q9Y256).
T2 sequence (Q9Y256 whole entry): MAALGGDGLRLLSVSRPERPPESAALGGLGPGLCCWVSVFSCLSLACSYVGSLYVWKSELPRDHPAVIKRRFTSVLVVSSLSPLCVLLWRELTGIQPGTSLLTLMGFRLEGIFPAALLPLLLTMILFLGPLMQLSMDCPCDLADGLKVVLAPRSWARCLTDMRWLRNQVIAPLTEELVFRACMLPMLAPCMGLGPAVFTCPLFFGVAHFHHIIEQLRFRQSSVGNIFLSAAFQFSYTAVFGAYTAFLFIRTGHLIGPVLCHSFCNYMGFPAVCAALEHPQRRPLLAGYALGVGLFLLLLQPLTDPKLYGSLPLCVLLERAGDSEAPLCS
As to the kind of experiment: inhibition of Ras-converting CAAX protease Rce1 – biochemical, yeast membranes, quenched-peptide fluorescence, cherry-pick, dose response (AID 588849).

The target in test [5] is Cytochrome P450 2C9 (Homo sapiens, UniProt P11712).
Chain of Cytochrome P450 2C9 (P11712 whole entry): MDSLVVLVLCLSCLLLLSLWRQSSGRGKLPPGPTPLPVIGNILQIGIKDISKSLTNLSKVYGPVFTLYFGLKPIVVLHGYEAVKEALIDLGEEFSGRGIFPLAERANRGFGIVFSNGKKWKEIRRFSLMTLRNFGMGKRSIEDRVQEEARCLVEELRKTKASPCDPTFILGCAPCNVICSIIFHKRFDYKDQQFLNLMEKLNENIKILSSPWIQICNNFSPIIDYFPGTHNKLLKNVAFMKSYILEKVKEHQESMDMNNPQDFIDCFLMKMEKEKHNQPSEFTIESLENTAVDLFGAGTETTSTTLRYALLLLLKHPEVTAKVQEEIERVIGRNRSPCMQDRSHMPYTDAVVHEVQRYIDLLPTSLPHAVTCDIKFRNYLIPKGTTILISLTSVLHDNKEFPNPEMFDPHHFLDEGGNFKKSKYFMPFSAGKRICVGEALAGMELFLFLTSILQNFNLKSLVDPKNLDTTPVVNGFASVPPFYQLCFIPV
The target of test [6] is T1, Corticotropin-releasing factor receptor 2/Corticotropin-releasing factor-binding protein. As to the kind of experiment: Dose Response confirmation of uHTS hits for small molecule antagonists of the CRF-binding protein and CRF-R2 receptor complex. In kind it is functional. To be noted: read-out: IC50_Mean.
A short description of test [7]: blockade of melanocortin 4 receptor signaling – cell-based, plate reader, cherry pick, counter-screen for LGR2 antagonist project, dose response (AID 743444).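 Note: transfected HEK 293 cells stimulated with alpha-MSH peptide; potency of inhibitors of the alpha-MSH evoked signal.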 It counts as functional.
A short description of test [8]: A549 cell cytotoxicity, dose response, cytotoxicity control, plate reader, cherry-pick, antagonist series (AID 743412). In kind it is functional, cell-based.
The target in test [9] is T3, Melanocortin receptor 4 (Homo sapiens, UniProt P32245). In kind it is functional, cell-based.
T3 sequence (P32245 whole entry): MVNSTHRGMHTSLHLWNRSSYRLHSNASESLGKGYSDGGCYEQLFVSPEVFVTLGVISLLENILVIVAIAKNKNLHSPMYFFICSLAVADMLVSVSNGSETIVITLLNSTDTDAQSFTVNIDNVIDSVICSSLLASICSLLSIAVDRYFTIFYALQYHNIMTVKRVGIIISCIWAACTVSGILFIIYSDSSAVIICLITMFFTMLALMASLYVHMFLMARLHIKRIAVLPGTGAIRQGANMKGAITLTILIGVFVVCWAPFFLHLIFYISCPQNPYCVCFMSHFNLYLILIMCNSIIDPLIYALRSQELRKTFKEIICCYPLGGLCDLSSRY
Test [10] in a line: viability loss in HEK293 cells – cell-based, plate reader, cherry-picked samples, cytotoxicity control, dose response (AID 743446). In kind it is functional.
A short description of test [11]: cAMP pathway inhibition in counterscreen cell line – TR-FRET cAMP detection, counter-screen for MC4R biased antagonist project, dose response (AID 602305).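 Note: U2OS cells stimulated with forskolin near its EC80 as the cAMP inducer; potency is for inhibition of forskolin-stimulated cAMP signaling.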 It counts as functional, cell-based. (In general: Counterscreens check selectivity or assay interference.)
Test [12] is described as follows: blockers of bursicon-stimulated LGR2 cAMP reporter – cell-based, HEK293, CRE-luciferase reporter, cherry pick, set 2, dose response (AID 743343).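 Note: transfected cells were stimulated with diluted bursicon conditioned medium after compound addition.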 In kind it is functional.
The nature of test [13]: Luminescence Cell-Based Dose Retest to Confirm Inhibitors of Cancer Stem Cells. [Related pubchem assays (depositor defined):AID2717, AID2721]. It counts as functional. To be noted: Homo sapiens.
For test [14], the target named is T3, Melanocortin receptor 4. As to the kind of experiment: inhibitors of MC4R cAMP signaling – cell-based, TR-FRET, biased antagonists, dose response (AID 602298).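 Note: antagonist potency against agonist-stimulated cAMP production.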 In kind it is functional. In general terms: TR-FRET usually uses a lanthanide donor and a delayed reading to cut background.
Test [15] has as its target T4, Apoptotic protease-activating factor 1 (Homo sapiens, UniProt O14727).
T4 sequence (O14727 whole entry): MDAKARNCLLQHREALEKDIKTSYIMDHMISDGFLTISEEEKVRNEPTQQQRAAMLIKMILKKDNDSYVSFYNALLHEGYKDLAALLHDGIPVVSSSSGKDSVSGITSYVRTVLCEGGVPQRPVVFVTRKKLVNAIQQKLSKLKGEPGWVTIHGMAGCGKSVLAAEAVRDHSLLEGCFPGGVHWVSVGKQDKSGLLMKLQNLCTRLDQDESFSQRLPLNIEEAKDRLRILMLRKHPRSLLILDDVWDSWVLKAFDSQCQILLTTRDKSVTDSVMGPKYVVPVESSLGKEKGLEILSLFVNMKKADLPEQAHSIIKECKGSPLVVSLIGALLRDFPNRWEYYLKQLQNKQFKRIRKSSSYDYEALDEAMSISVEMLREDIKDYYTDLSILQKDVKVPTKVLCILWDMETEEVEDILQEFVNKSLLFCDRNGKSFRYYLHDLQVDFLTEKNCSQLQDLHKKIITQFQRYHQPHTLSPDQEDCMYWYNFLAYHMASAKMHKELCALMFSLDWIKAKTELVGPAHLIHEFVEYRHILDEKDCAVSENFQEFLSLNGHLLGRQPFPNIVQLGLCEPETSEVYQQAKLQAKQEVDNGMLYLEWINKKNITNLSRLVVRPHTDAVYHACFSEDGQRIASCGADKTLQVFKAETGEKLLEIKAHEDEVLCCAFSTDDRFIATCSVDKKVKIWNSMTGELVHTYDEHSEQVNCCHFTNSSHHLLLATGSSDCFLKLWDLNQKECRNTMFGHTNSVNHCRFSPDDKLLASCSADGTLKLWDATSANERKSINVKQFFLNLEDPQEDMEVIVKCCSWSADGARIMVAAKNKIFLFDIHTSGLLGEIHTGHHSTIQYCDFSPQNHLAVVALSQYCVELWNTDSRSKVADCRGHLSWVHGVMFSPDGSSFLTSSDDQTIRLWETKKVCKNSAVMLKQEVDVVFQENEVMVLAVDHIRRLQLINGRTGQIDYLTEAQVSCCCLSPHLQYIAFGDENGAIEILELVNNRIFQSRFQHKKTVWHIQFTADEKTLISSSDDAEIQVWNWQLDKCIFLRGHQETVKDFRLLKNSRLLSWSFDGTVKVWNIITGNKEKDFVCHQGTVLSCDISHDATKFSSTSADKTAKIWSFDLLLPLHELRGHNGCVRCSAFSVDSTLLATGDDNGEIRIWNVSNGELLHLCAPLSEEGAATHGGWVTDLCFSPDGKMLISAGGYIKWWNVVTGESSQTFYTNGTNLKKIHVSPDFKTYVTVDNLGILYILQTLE
In kind it is functional.

Test [16] addresses T5, Heat shock factor protein 1 (Mus musculus, UniProt P38532).
T5 sequence (P38532 whole entry): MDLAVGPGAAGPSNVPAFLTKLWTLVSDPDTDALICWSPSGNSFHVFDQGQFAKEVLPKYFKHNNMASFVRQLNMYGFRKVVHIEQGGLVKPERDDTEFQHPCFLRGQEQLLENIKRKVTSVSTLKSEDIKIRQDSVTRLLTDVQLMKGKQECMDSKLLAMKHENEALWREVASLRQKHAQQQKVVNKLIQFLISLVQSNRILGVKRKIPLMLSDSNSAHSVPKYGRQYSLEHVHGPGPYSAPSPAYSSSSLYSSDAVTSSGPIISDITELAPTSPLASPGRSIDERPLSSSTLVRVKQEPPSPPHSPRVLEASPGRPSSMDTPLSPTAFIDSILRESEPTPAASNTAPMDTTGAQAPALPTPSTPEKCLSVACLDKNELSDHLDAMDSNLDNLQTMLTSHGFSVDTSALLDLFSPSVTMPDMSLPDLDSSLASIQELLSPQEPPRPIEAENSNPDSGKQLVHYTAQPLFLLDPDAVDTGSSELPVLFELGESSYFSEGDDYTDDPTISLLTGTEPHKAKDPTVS
Nature of the test: enhancement of HSF1-driven luciferase signal – cell-based, NIH3T3, luminescence, dose retest, confirmation (AID 435004).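 Note: stress induced by proteasome inhibitor MG132 added 30 min after compound; luciferase reporter driven by HSF1 response element in NIH3T3 cells; actives raise luminescence as potentiators of the MG132 stress response.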 In kind it is functional.

For test [17], the target named is T6, High affinity choline transporter 1 (Homo sapiens, UniProt Q9GZV3).
T6 sequence (Q9GZV3 whole entry): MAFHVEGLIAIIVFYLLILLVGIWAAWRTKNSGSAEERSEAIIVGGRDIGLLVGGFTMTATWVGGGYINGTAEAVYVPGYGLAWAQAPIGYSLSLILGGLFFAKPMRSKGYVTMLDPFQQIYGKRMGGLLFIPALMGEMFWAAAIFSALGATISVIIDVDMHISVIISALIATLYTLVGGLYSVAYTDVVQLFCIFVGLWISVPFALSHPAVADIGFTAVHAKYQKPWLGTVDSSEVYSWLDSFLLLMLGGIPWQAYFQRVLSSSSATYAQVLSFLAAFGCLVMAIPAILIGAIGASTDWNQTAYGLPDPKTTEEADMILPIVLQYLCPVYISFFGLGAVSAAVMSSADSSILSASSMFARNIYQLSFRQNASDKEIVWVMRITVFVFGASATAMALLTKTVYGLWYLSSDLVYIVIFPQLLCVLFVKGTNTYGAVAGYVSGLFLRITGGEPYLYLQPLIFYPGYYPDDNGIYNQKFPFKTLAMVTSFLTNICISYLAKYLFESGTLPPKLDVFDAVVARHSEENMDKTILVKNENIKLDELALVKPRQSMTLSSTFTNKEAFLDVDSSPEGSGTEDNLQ
As to the kind of experiment: human choline transporter blockers, potency – cell-based, 10-point CRC, membrane potential dye, dose response (AID 588401).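 Note: membrane potential dye fluorescence of choline-evoked depolarization via CHT.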 It counts as functional.

In test [18] the test system is H9c2. As to the kind of experiment: cells. In kind it is functional, cell-based. To be noted: Rattus norvegicus, H9c2, Myocardium.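 Note: confirmatory concentration-response retest of ultra-high-throughput screening hits for modulation of myocardial damage; cell death induced by hydrogen peroxide oxidative stress; compound pretreatment for 60 min then peroxide exposure for 2 h; potency is for protecting the cells against peroxide damage rather than for killing them.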
The target of test [19] is T6, High affinity choline transporter 1. As to the kind of experiment: human choline transporter blockers, potency – cell-based, 5-point CRC, membrane potential dye, dose response (AID 504840). It counts as functional.

The structures appear in SMILES notation. Active and inactive are the calls of the source.

Chain of Low molecular weight phosphotyrosine protein phosphatase (P24666 whole entry): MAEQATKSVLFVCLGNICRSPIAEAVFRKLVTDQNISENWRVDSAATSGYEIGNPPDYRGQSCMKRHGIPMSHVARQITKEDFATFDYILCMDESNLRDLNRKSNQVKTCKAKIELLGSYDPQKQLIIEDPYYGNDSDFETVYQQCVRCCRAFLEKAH

Take `O=C(COC(=O)c1ccc(Br)o1)Nc1nc2c(F)c(F)c(F)cc2s1`: the IC50 in [1] was 12.7 µM (active).

In general, AC50 refers to the concentration at which the activity in the assay is half-maximal. With `CSc1nnc(-c2sc(-c3ccccc3)nc2C)n1C`, the EC50 in test [2] is > 53 µM (inactive). Also, the values for the IC50 in test [3] and in [6] were > 20 µM (inactive) and < 0.368 µM (active), respectively. Further, the figures for the AC50 in test [4] and in test [5] were > 100 µM (inactive) and 0.0708 µM (inconclusive), respectively.

Consider `CCCCNc1c(-c2cccc(-c3cc(C(C)=O)cs3)c2)nc2ccc(C)cn12`, for which the concentration at half-maximal activity (AC50) in test [7] was 14.5 µM (active); in test [8], > 52 µM (inactive); in test [10], > 52 µM (inactive); in [12], 11.4 µM (active); in test [13], 4.47 µM (active). Also, the EC50 in test [9] was > 89.2 µM (inactive). In addition, the IC50 in test [11] and in test [14] was > 64.6 µM (inactive) each time.

As for `Oc1c(Br)cc(Br)cc1/C=N/c1cccc2ncccc12`, the IC50 is 36 µM (active) in test [15], 4.74 µM (active) in [17], 13.5 µM (active) in test [18] and 4.19 µM (active) in [19]. In addition, in test [16], the EC50 was > 260 µM (inactive).
